The values below come from PubChem BioAssay AID463074 (Broad Institute, 2010).

Calls of active or inactive are those of the source.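 The calls were made as follows: active = AC50 no more than tenfold above the top dose tested, or full inhibition at every dose with a flat fit (cut at about 19 µM in these data); inconclusive = flat curve fit with inhibition between 30% and 70%, or poor fit; inactive = AC50 more than tenfold above the top dose tested.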

The assay has as its system HMLE_sh_eGFP viability, CellTiter-Glo luminescence, 72 h. As to the kind of experiment: viability loss of HMLE_sh_eGFP cells – cell-based, luminescence, counter-screen for HMLE_sh_ECad selective toxicity project, dose response (AID 463074).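 Also: counterscreen control line to flag general toxicity for the HMLE_sh_ECad screen; potency for loss of viability as luminescence drops below DMSO wells.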
Regarding `CCCCCCc1cc2cc(C(=O)Nc3ccccc3)c(=O)oc2cc1O`, the half-maximal activity concentration (AC50) is 2.01 µM.

For the compound `COc1ccc(C[C@H]2CN3C(=NC[C@@H]3Cc3ccccc3)N2CCNC(=O)CCC2CCCCC2)cc1`, the AC50 was 7.04 µM.

`c1ccc(CN2CCC(Nc3nc(-c4ccccc4)nc4ccccc34)CC2)cc1`: the AC50 was 6.67 µM.

As to `CN(C)CCNc1nc2sc3c(c2c(=O)n1-c1ccccc1)CCCCC3`, the AC50 is 3.22 µM.

Consider `CCCCCc1cc(=O)oc2c(C(CCN3CCCCC3)c3cc(OC)c(OC)c(OC)c3)c(OC)cc(OC)c12` (stereo not drawn), for which the half-maximal activity concentration (AC50) is 6.95 µM.

Take `O=C(NC(=S)NCCc1ccccc1)C1CCCCC1`: the concentration at half-maximal activity (AC50) is 18.4 µM.

On to `CN1CCN(Cc2nc3ccccc3c(=O)n2Cc2nc(-c3ccc4ccccc4c3)cs2)CC1`, for which the AC50 is 3.59 µM.

As for `OC(CNCCc1ccc(C(F)(F)F)cc1)COc1cccc2ccccc12` (stereo not drawn), the AC50 is 3.54 µM.

With `COCCNC(=O)c1c[nH]c2ccc(S(=O)(=O)N3CCc4ccccc43)cc2c1=O`, the half-maximal activity concentration (AC50) is 5.53 µM.

With `O=C(Nc1cc(N2CCOCC2)ncn1)NC1(C(F)(F)F)Oc2ccc(Cl)cc2O1` (stereo not drawn), the AC50 is 14.7 µM.

In the case of `Cc1c(NC(=O)c2ccc([N+](=O)[O-])o2)cccc1-c1nc2ncccc2o1`, the AC50 was 6.52 µM.

For `COc1cc(C(=O)OC2CC3CCC2(C)C3(C)C)ccc1OC(C)=O` (stereo not drawn), the AC50 is 6.46 µM.

As for `Nc1ccc(CCN2CCN(c3cccc(C(F)(F)F)c3)CC2)cc1`, the half-maximal activity concentration (AC50) is 1.42 µM.

Regarding `Cc1[nH]n(-c2ncc(-c3ccc(Cl)cc3)s2)c(=O)c1C(c1ccc(Cl)cc1)C(C#N)C#N` (stereo not drawn), the AC50 was 3.86 µM.

Turning to `O=C(Nc1cccc(Cl)c1)c1nc[nH]c1C(=O)NCCCNC(=O)c1[nH]cnc1C(=O)Nc1cccc(Cl)c1`, the AC50 was 5.33 µM.

With `NC(=O)CC(NC(=O)Cc1ccc(Br)cc1)c1ccc(NC2CCCCCC2)c([N+](=O)[O-])c1` (stereo not drawn), the concentration at half-maximal activity (AC50) was 4.88 µM.

For `CN(C)CCOc1ccc(-c2c(-c3ccccc3)sc3ccccc23)cc1`, the half-maximal activity concentration (AC50) is 2.53 µM.

With `NS(=O)(=O)c1ccc(N/N=C/c2cn(-c3ccccc3)nc2-c2cccs2)c([N+](=O)[O-])c1`, the concentration at half-maximal activity (AC50) was 1.9 µM.

Consider `COc1ccc2sc(-c3ccc(SC)cc3)c(-c3ccc(O)cc3)c2c1`, for which the half-maximal activity concentration (AC50) was 2.42 µM.

Take `Cc1ccc(-c2cc(C(=O)N/N=C/c3ccccc3O)n[nH]2)o1`: the AC50 is 10.2 µM.

`CCc1nc(N2CCN(Cc3ccc4c(c3)OCO4)CC2)c2oc3ccccc3c2n1`: the AC50 is 3.85 µM.

With `O=C(NC(=S)Nc1ccccc1N1CCCCC1)c1ccc(F)cc1Cl`, the AC50 was 2.84 µM.

As to `CC(=O)c1ccc(N2CCN(c3ccc(S(=O)(=O)NCCCN(C)C)cc3[N+](=O)[O-])CC2)cc1`, the AC50 was 2.92 µM.

Consider `CCOC(=O)c1c(-c2ccccc2)csc1NC(=O)c1nn(CC)cc1Br`, for which the AC50 was 0.478 µM.

In the case of `CCCCCCCCOC(=O)c1c(CSC(=N)N)n(C)c2cc(Br)c(OC(C)=O)cc12`, the concentration at half-maximal activity (AC50) is 3.72 µM.

Regarding `Clc1ccc2c(N/N=C/c3cccc(Br)c3)ccnc2c1`, the AC50 was 4.06 µM.

With `C=CCCC(=O)Nc1nc(C)c(-c2csc(Nc3cc(OC)ccc3OC)n2)s1`, the AC50 is 1.02 µM.

Take `CCN(CC)S(=O)(=O)c1cccc(NC(=O)Nc2cccc(C(F)(F)F)c2)c1`: the AC50 is 3.56 µM.

Turning to `CN(C(=O)COC(=O)/C=C/c1cccc([N+](=O)[O-])c1)C1CCS(=O)(=O)C1` (stereo not drawn), the half-maximal activity concentration (AC50) is 4.61 µM.

`Cc1cc(N2CCCCC2)n2ncc(-c3ccc(Cl)cc3)c2n1`: the AC50 is 6.51 µM.

`Cc1cccc(NC(=O)c2nc[nH]c2C(=O)NC2CCN(C(=O)OC(C)(C)C)CC2)c1`: the AC50 is 6.79 µM.

With `Cc1ccc(-c2cc(C(=O)N3N=C(C(F)F)CC3(O)C(F)F)c3ccccc3n2)cc1C` (stereo not drawn), the concentration at half-maximal activity (AC50) was 4.55 µM.

Take `O=C1C=C(Nc2ccc(F)cc2)c2ccccc2C1=O`: the AC50 was 6.78 µM.

In the case of `CCCCOc1ccc(S(=O)(=O)N2CCN(c3ccc(N4CCN(CC)CC4)nn3)CC2)cc1`, the concentration at half-maximal activity (AC50) is 0.46 µM.

`COc1ccc(/C=C/c2nc3cc(-c4ccccc4)ccc3o2)cc1O`: the concentration at half-maximal activity (AC50) was 9.18 µM.

As to `Cc1nc(NCc2ccco2)c2c(C)c(C)sc2n1`, the AC50 is 5.22 µM.

With `CCN1CCN(c2ccc(NC(=O)CCc3c(C)nc4c(-c5ccc(F)cc5)c(C)nn4c3C)cc2)CC1`, the AC50 is 5.22 µM.

For `Cc1cc([N+](=O)[O-])nn1CC(=O)N/N=C/c1ccc(O)cc1O`, the half-maximal activity concentration (AC50) is 5.4 µM.

As to `OC(CNCc1ccco1)Cn1c2ccc(Br)cc2c2cc(Br)ccc21` (stereo not drawn), the AC50 was 3.64 µM.

With `NC(=O)CC(NC(=O)Cc1cccc2ccccc12)c1ccc(N2CCc3ccccc3C2)c([N+](=O)[O-])c1` (stereo not drawn), the AC50 was 17.6 µM.

As to `N#CC1=C(SCC(=O)c2ccc(Cl)cc2)NC2=C(C(=O)CCC2)C1c1ccco1` (stereo not drawn), the concentration at half-maximal activity (AC50) is 3.57 µM.

In the case of `Cc1cccc(NC(=O)c2cc(-c3cc(C)cc(C)c3O)n[nH]2)c1`, the concentration at half-maximal activity (AC50) is 4.2 µM.

Regarding `CN(C)c1ccc(-c2cc(O)c3ncccc3c2)cc1`, the AC50 was 12.8 µM.

As to `CC(=O)NC1=C(C#N)C(c2ccccc2)c2c(ccc3ccccc23)O1` (stereo not drawn), the half-maximal activity concentration (AC50) was 3.44 µM.

Regarding `NC(=O)CC(NC(=O)Cc1ccc(Br)cc1)c1ccc(N2CCC(Cc3ccccc3)CC2)c([N+](=O)[O-])c1` (stereo not drawn), the half-maximal activity concentration (AC50) was 14.7 µM.

As for `CCCc1ccc(-c2cc(NC(=O)CSc3nnc(N)s3)n(-c3ccccc3)n2)cc1`, the AC50 is 6.67 µM.

As to `Cc1ccc(-c2ccc([C@H]3[C@@H]4C=CCC[C@@]4(C)C(=O)N3Cc3ccccc3)c(F)c2)cc1`, the half-maximal activity concentration (AC50) was 5.32 µM.

Regarding `Cc1cc(C)cc(C(=O)Nc2nnc(SCC(=O)N3CCCc4ccccc43)s2)c1`, the AC50 was > 19.5 µM (inactive).

Consider `COCCNC(=O)CN(C(=O)CCC(=O)Nc1ccccn1)c1ccc(C)cc1`, for which the AC50 is > 19.5 µM (inactive).

Take `CC1=CC(C)[C@H](/C=N/n2c(=O)[nH]c3c([nH]c4ccc(Br)cc43)c2=O)C(C)C1` (stereo partly drawn): the AC50 is 1.46 µM.

Turning to `COc1ccc(C(C)(C)C)cc1NC(=O)Nc1ccc2c(c1)OCO2`, the AC50 was 8.21 µM.

Take `Cc1ccc(S(=O)(=O)N2CCN(C(=O)COc3ccc(NC(=O)c4ccco4)cc3)CC2)cc1`: the AC50 was > 19.5 µM (inactive).

With `COc1ccc(-c2sc3ccccc3c2-c2ccc(O)cc2)cc1`, the AC50 is 6.43 µM.

With `COc1cc2c(-c3ccc(O)cc3)nc3c(c(C)nn3-c3ccccc3)c2cc1OC`, the concentration at half-maximal activity (AC50) is 3.92 µM.

Turning to `CCc1ccc(N(CC(=O)Nc2nc3ccc(C)cc3s2)S(=O)(=O)c2c(C)noc2C)cc1`, the AC50 was 6 µM.

Take `O=C(c1ccc(Cl)cc1)c1c[nH]c(C(=O)NNc2ccccc2)c1`: the concentration at half-maximal activity (AC50) was 1.85 µM.

`CCOc1ccc(OCC(=O)N(CCC2=CCCCC2)c2c(N)n(Cc3ccccc3)c(=O)[nH]c2=O)cc1`: the AC50 is 6.29 µM.

For the compound `Cc1ccc(-n2nnnc2Sc2ccc(S(=O)(=O)NCCN(C)C)cc2[N+](=O)[O-])cc1`, the half-maximal activity concentration (AC50) is 6.72 µM.

`O=[N+]([O-])c1ccc(CP(=O)(c2ccccc2)c2ccccc2)cc1`: the AC50 was > 19.5 µM (inactive).

Consider `Fc1ccccc1COc1ccc(-c2nnn(Cc3ccccc3F)n2)cc1`, for which the concentration at half-maximal activity (AC50) is 4.81 µM.

For `Cc1cccc2sc(NC(=O)C3c4ccccc4Oc4ccccc43)nc12`, the AC50 was 5.71 µM.

Regarding `CN(/N=C/c1cc(Cl)cc(Cl)c1O)C(=S)NC(C)(C)C`, the AC50 is 2.75 µM.

Consider `CC(C)C[C@H](NC(=O)c1nc[nH]c1C(=O)NC(c1ccccc1)c1ccccc1)C(=O)OC(C)(C)C`, for which the concentration at half-maximal activity (AC50) is 3.67 µM.

Take `COc1cc2c(cc1NC(=O)Nc1ccc(C)cc1)oc1ccccc12`: the concentration at half-maximal activity (AC50) is 11.3 µM.

`O=C(/C(=C\c1ccccc1)c1nc2ccccc2[nH]1)c1ccc(Cl)cc1`: the AC50 is 3.27 µM.

Take `Cc1ccc(S(=O)(=O)Nc2ccc(C(OC(=O)c3ccccc3[N+](=O)[O-])(C(F)(F)F)C(F)(F)F)cc2)cc1`: the AC50 is 7.19 µM.

Turning to `Cc1ccc(OCCN2CCN(c3nc(NCc4ccco4)c4ccccc4n3)CC2)cc1`, the AC50 was 4.66 µM.

Turning to `NC1=NC[C@@H](CC2CCCCC2)N1CCc1cc(C(F)(F)F)cc(C(F)(F)F)c1`, the AC50 is 2.74 µM.

Turning to `CN(C)CCCn1c(=S)[nH]c2sc3c(c2c1=O)CCCC3`, the AC50 was > 19.5 µM (inactive).

`COc1ccc2sc(-c3ccc(N(C)C)cc3)c(-c3ccc4cc[nH]c4c3)c2c1`: the AC50 is 16.5 µM.

As for `Cc1cccc(OCCNc2cc(N3CCN(C)CC3)ccc2[N+](=O)[O-])c1`, the concentration at half-maximal activity (AC50) is 5.34 µM.

On to `COC(=O)c1ccc(CN(c2ccc(C(=O)O)c(O)c2)S(=O)(=O)c2ccc(Cl)c([N+](=O)[O-])c2)cc1`, for which the concentration at half-maximal activity (AC50) is 3.5 µM.

`COc1ccc(OC)c(-c2csc(NC(=O)c3ccc(F)cc3)n2)c1`: the concentration at half-maximal activity (AC50) is 6.89 µM.

On to `CCN(Cc1ccccc1)c1ccc(/C=N/N=C(N)N)cc1`, for which the AC50 is 3.16 µM.

As for `CCN(CC)c1ccc(S(=O)(=O)Nc2cc(Cl)ccc2Cl)cc1NC(=S)NC(=O)C1CCCC1`, the AC50 is 2.06 µM.

Consider `Cc1cc(NCc2ccccn2)n2nc(C)c(-c3ccc(Cl)cc3)c2n1`, for which the half-maximal activity concentration (AC50) was 5.92 µM.

For `Cc1ccc(S(=O)(=O)Nc2ccc3c(c2)CC(=O)N([C@H](C)CO)C[C@@H](C)[C@H](CN(C)Cc2ccc(-c4ccccc4)cc2)O3)cc1`, the concentration at half-maximal activity (AC50) is 2.29 µM.

With `C=C(C)[C@@H]1CC[C@]2(C(=O)O)CC[C@]3(C)[C@H](CC[C@@H]4[C@@]5(C)CC[C@H](O)C(C)(C)[C@@H]5CC[C@]43C)[C@@H]12`, the half-maximal activity concentration (AC50) was 3.97 µM.

Consider `Cc1ccc2nc(-c3ccccn3)c(Nc3ccccc3C)n2c1`, for which the half-maximal activity concentration (AC50) was 5.04 µM.

For `OCCCn1c(CCNc2nc(-c3ccc(Cl)cc3)cs2)nc2cc(C(F)(F)F)ccc21`, the AC50 is 11.3 µM.

As for `CC1=CC(=O)C(C(C)C)=C/C1=C(\c1cc(C(C)C)c(OP(=O)(O)O)cc1C)c1ccccc1C(=O)O`, the AC50 is 3.6 µM.

Take `O=C(Cn1ncc(Cl)c(Cl)c1=O)NC(=O)NC1CCCCC1`: the AC50 was 2.23 µM.

Regarding `CN1C2CCC1/C(=C\c1ccccc1)C(=O)/C2=C\c1ccccc1`, the half-maximal activity concentration (AC50) was 4.24 µM.

Consider `COc1cccc(-c2sc3ccccc3c2-c2ccc(OCCN3CCCC3)cc2)c1`, for which the AC50 is 2.81 µM.

Regarding `O=C(Nc1ccc(Nc2ccccc2)cc1)Nc1ccccc1Cl`, the AC50 was 3.44 µM.

As for `CCN1C(=O)/C(=C\N2CCN(c3cccc(Cl)c3)CC2)SC1=S`, the AC50 is > 19.5 µM (inactive).

Turning to `O=C(/C=C/c1ccc(Cl)c([N+](=O)[O-])c1)c1ccc(O)cc1`, the AC50 is 3.72 µM.

`O=c1cc(N2CCCCC2)c(-c2ccccc2)nn1Cc1ccc(Cl)cc1`: the half-maximal activity concentration (AC50) is 3.77 µM.
